O=C(O)/C=C/c1ccc(Cl)cc1
solubility (mole fraction)
Conditions	283.15 K	288.15 K	293.15 K	298.15 K	303.15 K	308.15 K	313.15 K	318.15 K	323.15 K
in 1,4-dioxane	–	0.00826	0.0094	0.0106	0.0118	0.0132	0.0148	0.0158	0.018
in acetone	0.00214	0.00248	0.00303	0.00334	0.00388	0.00434	0.00509	0.00556	0.00654
in acetonitrile	0.000318	0.000351	0.000365	0.000425	0.000468	0.000515	0.000622	0.000803	0.00105
in ethanol	0.00136	0.00166	0.00184	0.00207	0.00238	0.00265	0.00317	0.00363	0.004
in ethyl acetate	0.00159	0.00166	0.0019	0.00214	0.00242	0.00266	0.00315	0.00379	0.00442
in isobutanol	0.00102	0.00125	0.00154	0.00177	0.00195	0.00223	0.00244	0.00282	0.00325
in isopropanol	0.00118	0.00141	0.00165	0.0019	0.00215	0.00255	0.0029	0.00359	0.00454
in methanol	0.00112	0.00123	0.00136	0.00155	0.00172	0.00187	0.00206	0.00233	0.00251
in methyl acetate	0.00142	0.00173	0.00201	0.00231	0.00262	0.00298	0.0033	0.00355	0.0038
in n-butanol	0.00123	0.00154	0.00184	0.00219	0.00249	0.00283	0.00314	0.0037	0.00427
in n-propanol	0.0012	0.00146	0.00177	0.002	0.00234	0.00266	0.00308	0.00361	0.00432
in water	5.3e-06	6.88e-06	8.16e-06	9.38e-06	1.16e-05	1.26e-05	1.51e-05	1.74e-05	2.06e-05

— BigSolDB 2.1
